Data as given in US20260041660A1 (priority 2020, published 2026).

Columns and labels:
[1] = test system: peripheral blood lymphocytes (predominantly T-cells); test: Pilot studies: effect of TPA on peripheral blood lymphocytes; format: cell-based
Source text: In addition to minimizing hyper-inflammatory activities of macrophages and neutrophils, TPA compositions and methods of the invention mediate protection of lymphocytes (prolongation of lifespan), and also directly stimulate lymphocyte proliferation and differentiation. […] This activity will protect and expand lymphocyte numbers, which in turn will mediate potent anti-viral effects.
(§1) The instant disclosure, in conjunction with ongoing pilot studies by the inventors, illustrates a wide range of pro-immune and anti-inflammatory effects of TPA that will potently mediate reduction and/or prevention of ARDS conditions and symptoms, as well as other pathogenic conditions and symptoms associated with severe COVID-19 disease. […] Exemplary pilot studies have shown that TPA compounds will effectively treat and prevent lymphocytopenia, by virtue that these compounds promote full range of pro-immune effects relating to activation, proliferation and survival of lymphocytes. […] Neutrophils are evidently “hijacked” and reprogrammed by SARS-COV-2 proteins (and other emergent pro-inflammatory factors that emerge in the course of COVID-19 disease development), leading to profound dysregulation of neutrophil immune and inflammatory activities. […]

PKC = test: Inventors' studies: TPA effect on PKC; format: biochemical
Source text: (§2) More complex effects of TPA on MAPK pathways involve TPA regulation of immune cell differentiation and apoptosis.

MAPK = test: Inventors' studies: TPA effect on MAPK hyper-stimulation; format: cell-based; settings: reduced MAPK activation and phosphorylation activity
Source text: as §2

MAPK and JAK = test: TPA pro-apoptotic effects via immune-regulatory kinases; format: cell-based; settings: through interactions with MAPK and JAK
Source text: as §1

[2] = format: in vivo, C57Bl/6 mouse
IL-6 = settings: in vitro and in vivo; Stat3, Akt, ERK1/2 pathways; cited from earlier work
[3] = test system: murine peritoneal macrophages; settings: via suppression of ERK1/2 signaling; cited from earlier work
[4] = polar organic solvents and water; cited from earlier work
HIN1 = settings: reducing infiltration of inflammatory cells, inhibiting pro-inflammatory cytokines; cited from earlier work
SARS-COV-2 [5] = settings: recent in vitro studies; cited from earlier work
SARS-COV-2 [6] = settings: after 48 h of infection with SARS-COV-2; cited from earlier work
COVID-19 = settings: human, in vivo; cited from earlier work

## CCCCCCCCCCCCCC(=O)O[C@@H]1[C@H](C)[C@@]2(O)[C@@H](C=C(CO)C[C@]3(O)C(=O)C(C)=C[C@@H]23)[C@@H]2C(C)(C)[C@]12OC(C)=O (stereo in doubt) [TPA, 12-O-tetradecanoylphorbol-13-acetate]
[1]
  mitogenic effect on peripheral blood lymphocytes: direct, clinically effective mitogenic effect
PKC
  effect on PKC: not only activates, but stabilizes PKC
MAPK
  MAPK hyper-stimulation: clinically beneficial reduction in MAPK hyper-stimulation
MAPK and JAK
  apoptotic effects: pro-apoptotic effects
[2]; 48 hrs
  TNFα content in BALF samples: reduction of TNFα content
  protein extravasation in BALF samples: reduction of protein extravasation in BALF samples
[2]; after 48 hours
  ROS generation of lavaged neutrophils: significant reduction in ROS generation
[2]; mouse, in vivo
  BALF WBC ROS production: significantly lower
  LPS-induced EBD extravasation: suppression of LPS-induced EBD extravasation
  hyper-elevation of IL-6, IL-10, TNFα, MIP2 and other pro-inflammatory cytokines: block or reduce hyper-elevation
  monocyte/macrophage and neutrophil counts: reduction in monocyte/macrophage and neutrophil counts
  neutrophil and RBC into pulmonary interstitial spaces and alveolar airspaces: marked reduction in neutrophil and RBC
  presence of neutrophils in BALF: significantly reduced
  swelling of the alveolar walls: reduced swelling of the alveolar walls
[2]; mouse, in vivo, iv
  histopathologic changes of the lung: markedly suppressed

## C=C1CC[C@@H]2[C@](C)(CO)[C@H](O)CC[C@@]2(C)[C@@H]1C/C=C1/C(=O)OC[C@H]1O [Andrographolide]
IL-6
  IL-6 production and IL-6 hyper-inflammatory signaling: inhibits IL-6 production and suppresses IL-6 hyper-inflammatory signaling in a dose-dependent manner
[3]
  production of TNF-α and interleukin-12: inhibits the production of TNF-α and interleukin-12

## CC1=C[C@H]2[C@@]3(O)[C@H](C)[C@@H](O)[C@]4(O)[C@H]([C@@H]3C=C(CO)C[C@]2(O)C1=O)C4(C)C [Phorbol]
[4]
  solubility: well soluble in most polar organic solvents and in water

## O=C1CCC(N2C(=O)c3ccccc3C2=O)C(=O)N1 (stereo not shown) [Thalidomide]
HIN1
  treatment of infected mice: effective in treating HIN1-infected mice

## CCN(CCO)CCCC(C)Nc1ccnc2cc(Cl)ccc12 (stereo not shown) [hydroxychloroquine]
SARS-COV-2 [5]
  viral load/titer of SARS-COV-2: effectively reduces viral load/titer of SARS-COV-2

## Ivermectin
SARS-COV-2 [6]
  reduce viral RNA: up to 5,000 fold

## TCZ: recombinant human anti-IL-6 monoclonal antibody that binds soluble and membrane-bound IL-6 receptors
COVID-19
  fever and other ARDS symptoms: reduces fever and other ARDS symptoms
  patients with opacity lung lesion on CT scans absorbed: 90.5%
  patients with peripheral lymphocyte levels returned to normal: 52.6%
  treated subjects showing improved oxygenation: 75.0%
